Test system: mildly to moderately active ulcerative colitis
Test: Randomized, double-dummy, active controlled 8-week clinical trial in ulcerative colitis
Type: in vivo, human
Settings: week 8
Procedure: 120 patients with colonoscopy-confirmed mildly to moderately active ulcerative colitis were assigned to two groups (60 patients/group). […] All other medications were excluded. The therapeutic effects were assessed biweekly using a scale similar to the partial Mayo Scoring System, and the clinical symptom score reduction (≧50% reduction in symptoms) was calculated. Scores were then retrospectively calculated using the standard partial Mayo scores (PMS), clinical response (improvement ≧2 points or final score of 0) and remission (≦1 PMS score at week 8). Colonoscopies at the beginning and at the end of treatment were rated with a modified Baron score, and biopsies taken during colonoscopy were graded histologically with a scale of 0-3.

SMILES: Nc1ccc(O)c(C(=O)O)c1 [Etiasa, 5-amino-2-hydroxybenzoic acid]
- patients with Baron scores reduced by at least two grades (colonoscopy): 42%
- clinical response rate (partial Mayo score improvement ≧2 points or final score of 0): 58%
